# Laboratory results reported in PubChem BioAssay (NCI).
# Several values for one entry are separate records, joined by “and”; a condition that tells them apart may be missing. Equal entries are not always repeated.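 96-well plates; 48 h exposure; 5 concentrations. Endpoints by linear interpolation between flanking doses. Not reached: highest tested concentration assigned. The concentration for 50% growth inhibition is given as GI50. TGI is the concentration that stops growth completely.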
# Experiments:
# Assay in all cases: inhibition of tumour cell growth, NCI panel, 48 h
# [1] = test system: RXF 393 renal
# [2] = test system: HL-60(TB) leukemia
# [3] = test system: MCF7 breast
# [4] = test system: PC-3 prostate
# [5] = test system: HT29 colon
# [6] = test system: M14 melanoma
# [7] = test system: EKVX NSCLC
# [8] = test system: OVCAR-4 ovarian
# [9] = test system: HCT-15 colon
# [10] = test system: HCC-2998 colon
Compound,GI50 [1],TGI [1],GI50 [2],TGI [2],GI50 [3],TGI [3],GI50 [4],TGI [4],GI50 [5],TGI [5],GI50 [6],TGI [6],GI50 [7],TGI [7],GI50 [8],TGI [8],GI50 [9],TGI [9],GI50 [10],TGI [10]
Cc1cc(I)cc(CN(C)CCCN2CCOCC2)c1O,11.8 µM,38.2 µM,27.7 µM,72 µM,32.7 µM,> 100 µM,42.9 µM,> 100 µM,16.5 µM,33.6 µM,16 µM,32.3 µM,72.4 µM,> 100 µM,63.2 µM,> 100 µM,29 µM,> 100 µM,35.4 µM,> 100 µM
CC(C)CNC(=O)O,,> 100 µM,,> 100 µM,,> 100 µM,,> 100 µM,,> 100 µM,,> 100 µM,,> 100 µM,,> 100 µM,,> 100 µM,,
COc1ccc2c(O)cc3c(c2c1)[C@H](CCl)CN3C(=O)c1cc2cc(NC(=O)CCN3CCOCC3)ccc2[se]1,< 0.001 µM,< 0.001 µM,0.00142 µM,> 10 µM,< 0.001 µM,1.39 µM,< 0.001 µM,0.0699 µM,< 0.001 µM,> 3.24 µM,,,< 0.001 µM,0.00471 µM,< 0.001 µM,0.783 µM,< 0.001 µM,,< 0.001 µM,0.00715 µM
O=C(Nc1ccc(-n2cc(-c3ccncc3)c(-c3ccc(Cl)c(O)c3)n2)cc1)Nc1ccc(Cl)c(C(F)(F)F)c1,0.755 µM,2.31 µM,2.42 µM,7.46 µM,2.12 µM,5.65 µM,1.86 µM,9.63 µM,,,1.43 µM,3.11 µM,3.05 µM,14.6 µM,0.639 µM,6.12 µM,1.31 µM,2.95 µM,1.78 µM,3.25 µM
Cc1cc(S(=O)(=O)N/N=C(\Sc2cc(Cl)c(C)cc2S(N)(=O)=O)c2ccc(Cl)cc2)c(Cl)cc1Cl,54.8 µM,> 100 µM,76.4 µM,> 100 µM,42.8 µM,> 100 µM,86.4 µM,> 100 µM,,,> 100 µM,> 100 µM,> 100 µM,> 100 µM,63.1 µM,> 100 µM,> 100 µM,> 100 µM,,
COc1ccc(-c2oc3cc(O)c(OC)c(O)c3c(=O)c2OC)cc1O,0.171 µM,> 100 µM,0.0275 µM,0.212 µM,0.316 µM,> 100 µM,4.44 µM,> 100 µM,3.5 µM,> 100 µM,,,3.43 µM,> 100 µM,1.26 µM,> 100 µM,0.0928 µM,> 100 µM,1.22 µM,> 100 µM
O=C(CSC(c1ccccc1)c1ccccc1)N/N=C/c1ccc(Cl)cc1Cl,34.4 µM,89.1 µM,24.4 µM,55.1 µM,7.82 µM,29.2 µM,31.9 µM,> 100 µM,,,29.2 µM,87.2 µM,43.6 µM,> 100 µM,38.8 µM,> 100 µM,37.6 µM,> 100 µM,26.9 µM,71 µM
Cc1cc(N/N=C/c2nc(-c3ccc(Br)cc3)oc2C)c2cc(Br)ccc2n1,5 µM,19.8 µM,2.24 µM,6.28 µM,1.68 µM,3.74 µM,2.68 µM,8.75 µM,3.14 µM,13.7 µM,3.58 µM,13.8 µM,19.3 µM,38.5 µM,,,2.88 µM,10.2 µM,7.43 µM,20.8 µM
CN(CCCNC(=O)Cc1ccc2ccc3cccc4ccc1c2c34)CCCNc1cc(-c2ccc3ccccc3c2)nc2ccccc12,,,1.1 µM,2.43 µM,0.587 µM,2.08 µM,1.49 µM,3.22 µM,0.511 µM,1.69 µM,1.76 µM,3.46 µM,,,1.46 µM,2.78 µM,1.52 µM,2.94 µM,1.48 µM,2.98 µM
Cc1cc(C2CC(O)C(CO)O2)cc2c(=O)[nH]c(N)nc12 (centres undefined),> 100 µM,> 100 µM,,,> 100 µM,> 100 µM,> 100 µM,> 100 µM,> 100 µM,> 100 µM,> 100 µM,> 100 µM,> 100 µM,> 100 µM,> 100 µM,> 100 µM,> 100 µM,> 100 µM,> 100 µM,> 100 µM
CC(C)OC(=O)NNc1cc(Cl)ccc1Cl,,,,> 100 µM,,> 100 µM,,> 100 µM,,> 100 µM,,> 100 µM,,> 100 µM,,,,> 100 µM,,> 100 µM
CC(=O)/C=C/c1ccc(C#Cc2ccccc2)s1,16.2 µM,33 µM,,,7.6 µM,65 µM,15.7 µM,29 µM,12 µM,25.2 µM,15.7 µM,29.1 µM,17.7 µM,31.6 µM,13.1 µM,28.6 µM,15.6 µM,29 µM,14.7 µM,27.8 µM
CC(=O)O[C@H](C[C@H](C(C)C)N(C)C(=O)[C@@H](NC(=O)[C@H]1CCCCN1C)C(C)C)c1nc(C(=O)N[C@@H](Cc2ccccc2)C[C@H](C)C(=O)O)c(CCOCc2ccccc2)s1,,,< 0.001 µM,< 0.001 µM,< 0.001 µM,> 10 µM,< 0.001 µM,> 10 µM,< 0.001 µM,> 10 µM,,,< 0.001 µM,> 10 µM,0.00242 µM,> 10 µM,< 0.001 µM,> 10 µM,< 0.001 µM,0.616 µM
N#C/C(=C/N1CCN(C(=O)c2ccco2)C1=S)C(=O)c1ccccc1,4.09 µM,19.4 µM,31.5 µM,91.5 µM,4.47 µM,> 100 µM,31.7 µM,> 100 µM,30.5 µM,> 100 µM,14.9 µM,36.8 µM,17.8 µM,48 µM,29.8 µM,93.2 µM,5.73 µM,> 100 µM,,
N#CC(=NCCO)C1=C(O)c2ccccc2C1=O,,> 100 µM,,> 100 µM,,> 100 µM,,> 100 µM,,> 100 µM,,> 100 µM,,> 100 µM,,> 100 µM,,> 100 µM,,
Oc1cn(-c2ccc(Cl)cc2)nc1-c1n[nH]c(=S)n1C1CCCCC1,> 24.6 µM,> 100 µM,,,,> 100 µM,11.4 µM,> 66.9 µM,30.5 µM,> 100 µM,0.682 µM,38.7 µM,15.5 µM,> 100 µM,31.8 µM,> 100 µM,0.31 µM,> 100 µM,2.33 µM,14.3 µM
O=[N+]([O-])c1ccc2c(c1)C(c1ccccc1Cl)=Nc1cn[nH]c1N2,4.57 µM,> 25 µM,14.4 µM,> 25 µM,10.9 µM,> 25 µM,14.3 µM,> 25 µM,19.2 µM,> 25 µM,> 25 µM,> 25 µM,,,12.5 µM,> 25 µM,15.3 µM,> 25 µM,24.7 µM,> 25 µM
COc1cccc(/C(COc2ccc3c(c2)oc(=O)c2cc(OC)ccc23)=N/O)c1,> 100 µM,> 100 µM,,,4.02 µM,> 100 µM,6.29 µM,> 100 µM,3.38 µM,> 100 µM,3.62 µM,> 100 µM,16.1 µM,> 100 µM,18.8 µM,> 100 µM,3.99 µM,> 100 µM,7.78 µM,> 100 µM
NC(N)=NCCCCCNc1noc(Cc2c[nH]c3cc(Br)ccc23)n1,20.2 µM,> 100 µM,7.21 µM,28.8 µM,16.3 µM,45 µM,2.57 µM,79.6 µM,19.5 µM,> 100 µM,10.8 µM,44.3 µM,,,12.2 µM,91.8 µM,60.5 µM,> 100 µM,6.12 µM,23.2 µM
Cn1cc(C2=C(c3cn(CCCCCN)c4ccccc34)C(=O)NC2=O)c2ccccc21,3.66 µM,9.47 µM,6.07 µM,13.4 µM,5.51 µM,> 18 µM,13.8 µM,> 25 µM,7.39 µM,> 22.8 µM,12.4 µM,> 25 µM,,,12.7 µM,> 25 µM,7.01 µM,> 25 µM,> 25 µM,> 25 µM
CC(C)N=c1cc2n(-c3ccc(Cl)cc3)c3ccccc3nc-2cc1Nc1ccc(Cl)cc1,0.921 µM,4.72 µM,1.04 µM,2.46 µM,1.28 µM and 2.36 µM,> 100 µM,0.891 µM and 1.9 µM,> 50 µM,0.537 µM and 0.827 µM,> 50 µM and 6.27 µM,1.01 µM and 2.29 µM,2.31 µM and 5.62 µM,1.4 µM,> 100 µM,1.29 µM,> 100 µM,0.54 µM and 1.61 µM,> 100 µM,,
